Laboratory results from publication PMC6212778, “Site-specific amino acid substitution in dodecameric peptides determines the stability and unfolding of c-MYC quadruplex promoting apoptosis in cancer cells” (Nucleic Acids Research, 2018).

Legend:
[1] = tested on: BCL-2, VEGF-A, KRAS transcripts in MCF-7 cells; assay: Real time PCR of other oncogene transcripts; assay type: cell-based, human; settings: MCF-7, 24 h, qPCR
Experimental: To inspect the transcription inhibitory roles of peptides in c-MYC, BCL-2, VEGF-A and KRAS oncogenes having putative quadruplexes in their promoters, we performed real time polymerase chain reactions. MCF-7 cells are sub-cultured into 6-well microtiter plates at a density of 1 × 10^6 cells per well and treated with different concentrations of peptides (FK13, KR12A, KR12B and KR12C) for 24 hours. Total RNA is isolated from both untreated and treated cells using TRIzol method (Invitrogen) as per manufacturer's instructions. 2 μg of total RNA is processed for cDNA synthesis and reverse transcribed using a Super MuLV RT Kit (Biobharati Life Sciences Pvt. Ltd.). Real time PCR is performed using Maxima SYBR Green/ROX qPCR Master Mix (2×) (Thermo-Scientific) as per manufacturer's protocol. Housekeeping gene, GAPDH is used as an internal control to normalize the variability in c-MYC mRNA expression levels (Supplementary information Section 1). PCR primers are designed using Primer-BLAST, NCBI, and analyzed in OligoAnalyser 3.1-IDT (Supplementary Table S2).

c-MYC quadruplex (Pu27) = assay: ITC of KR12C with Pu27 under macromolecular crowding (MCF-7 nuclear extract); assay type: binding, human
Experimental: (§1) Thermodynamic attributes of the interaction profiles between peptides and putative quadruplex sequences are analysed by ITC using iTC200 Microcalorimeter at 25°C. Synthetic peptides (FK13, KR12A, KR12B, KR12C, KR12D and KR12E) are diluted to 20 μM in 10 mM Potassium phosphate buffer (10 mM K2HPO4 + 10 mM KH2PO4) containing 0.1 M KCl (pH 7.0). Syringe is filled with 500 μM quadruplex sequences present in the upstream promoter regions of c-MYC (Pu27, Pu19, and Myc22), BCL-2 (Pu30), VEGF-A (Pu22), KRAS (Pu32) oncogenes, and telomere (Tel26) dissolved into the same buffer. We also carried out the experiment for KR12C and Pu27 using MCF-7 nuclear extract as the solvent to mimic the cellular microenvironment and impart macromolecular crowding during binding events. Same concentration of oligonucleotides is injected into the identical buffer or in nuclear extract without peptides to normalize the heat of dilution of peptide-quadruplex association to that of the control before curve-fitting. […] The heat of reaction per injection (μcal/s) is determined by integration of the peak areas using in-built Origin 7.0 software that provides the best-fit values of enthalpy (ΔH) and entropy (ΔS) of binding, the binding stoichiometry (n), and dissociation constant (Kd) (Supplementary Tables S5(a), S5(b) and S5(c)). […]

BCL-2 (Pu30) quadruplex = assay: ITC of peptides with BCL-2 quadruplex; assay type: binding, human; settings: potassium phosphate buffer pH 7.0
Experimental: as §1

[2] = tested on: telomere (Tel26) quadruplex; assay: ITC of peptides with telomeric quadruplex; assay type: binding, human; settings: potassium phosphate buffer pH 7.0
Experimental: as §1

KRAS (Pu32) quadruplex = assay: ITC of peptides with KRAS quadruplex; assay type: binding, human; settings: potassium phosphate buffer pH 7.0
Experimental: as §1

VEGF-A (Pu22) quadruplex = assay: ITC of peptides with VEGF-A quadruplex; assay type: binding, human; settings: potassium phosphate buffer pH 7.0
Experimental: as §1

[3] = tested on: c-MYC quadruplex isomer Myc22; assay: CD melting of free and peptide-bound Myc22; assay type: binding, human
Experimental: (§2) To understand the role of peptides (FK13, KR12A, KR12B, KR12C, KR12D and KR12E) in stabilizing native and truncated isomers of c-MYC G-quadruplex, we have performed temperature-driven CD melting experiments for free and peptide-bound complexes in JASCO-J815 CD spectrometer. We have gradually titrated the peptides into 10 μM of putative quadruplexes and acquired the spectra after 5 min of peptide addition to allow complex formation and equilibration. Samples are heated from 20 to 95°C having the temperature gradient and the delay time of 2.5°C/min and 150 s respectively. Since the quadruplexes unfold at higher temperatures and revert back to their initial conformations upon renaturation, we have assumed a ‘two-state transition’ model (folded and unfolded) to analyze the melting curves and estimated the melting temperatures (Tm) by fitting the data points into sigmoidal curves (Supplementary information Section 1).

[4] = tested on: c-MYC quadruplex isomer Pu19; assay: CD melting of free and peptide-bound Pu19; assay type: binding, human; settings: 10 μM quadruplex, two-state model
Experimental: as §2

MCF-7 cells = assay: Western blot / real time PCR of apoptotic markers and signalling proteins; assay type: cell-based, human; settings: MCF-7, 5 and 10 μM KR12C, 24 h
Experimental: To observe the effect of KR12C in c-MYC protein expression, and to decipher the peptide-driven signaling pathway to trigger apoptosis within cancer cells, we have performed an array of Western Blot experiments. MCF-7 cells are seeded at a density of 7 × 10^5 cells per well into 60 mm dishes and allowed to attach overnight. Next day cells are serum starved for 18 h. At the end of 18 h fresh medium supplemented with 2% FBS +1% antibiotic and anti-mycotic is added. Then cells are treated with 5 μM and 10 μM KR12C. Recombinant VEGF is added at a concentration of 200 ng/ml of medium either alone or in combination with 10 μM KR12C. Cells are harvested after 24 hrs of treatment.
Whole cell lysate is prepared using the Cell Lysis Buffer (Cell Signalling Technologies) according to the manufacturer's protocol supplemented with Phenylmethylsulfonyl fluoride (PMSF) (Merck) and Protease Inhibitory Cocktail (PIC) (Merck). 40 μg of protein is separated using sodium dodecyl sulfate polyacrylamide gel electrophoresis (SDS-PAGE). (4% stacking gel and 12–15% resolving gel). Samples are transferred to polyvinylidene fluoride (PVDF) membranes (Immobilon-P, EMD Millipore). Membranes were blocked using 5% milk in Tris-buffered saline (TBS) with Tween 20 (Amresco) for 45 min at room temperature. Membranes are then incubated overnight at 4°C with the following antibodies: anti-c-Myc (Rabbit polyclonal, 1:500 dil. Cell Signalling Technology Inc.), Mouse anti-Bcl2 (Mouse monoclonal, 1:250 dil. Santacruz Biotechnology Inc.), anti E2F1, anti VEGF-A, anti-P53, anti-APAF1, anti-Caspase 8, anti-PARP (Abcam), anti-β-actin (Mouse monoclonal, 1:10 000 dil. Santacruz Biotechnology Inc.). Next membranes are incubated with peroxidase conjugated anti-rabbit IgG raised in Goat (Sigma, 1:8000 dil.) and peroxidase conjugated anti-mouse IgG raised in Rabbit (Sigma, 1:10 000 dil.) for 2 h at room temperature. Target proteins are visualised on membranes using Clarity TM Western ECL substrate (Bio-rad) and images are captured using ChemiDoc MP system with Image Lab™ software for PC version 6.0 (Bio-rad).

Substance	transcription of other oncogenes (BCL-2, VEGF-A, KRAS) [1]	Kd (c-MYC quadruplex (Pu27); 25°C, MCF-7 nuclear extract as solvent, single-site model, background subtracted) [nM]	fold increase in binding affinity for Pu27 in MCF-7 nuclear extract versus potassium phosphate buffer (c-MYC quadruplex (Pu27); macromolecular crowding) [fold]	binding affinity with BCL-2 quadruplex (BCL-2 (Pu30) quadruplex)	fold decreased affinity for BCL-2 quadruplex compared to c-MYC quadruplexes (BCL-2 (Pu30) quadruplex) [fold]	fold decreased affinity for telomeric quadruplex compared to c-MYC quadruplexes [2] [fold]	binding affinity with KRAS quadruplex (KRAS (Pu32) quadruplex)	binding affinity with VEGF-A quadruplex (VEGF-A (Pu22) quadruplex)	rise in the Tm of Myc22 upon peptide binding ([3]; 10 μM quadruplex, two-state model) [°C]	rise in the Tm of Pu19 upon peptide binding [4] [°C]	expression of p53, cleaved PARP, caspase 8 and APAF-1 (MCF-7 cells; western blot)	BCL-2 expression at transcription and translation level (MCF-7 cells; western blot and real time PCR)	VEGF-A and E2F-1 expression (MCF-7 cells; western blot and real time PCR)	depletion of the melting temperature of Myc22 upon peptide binding [3] [°C]
N – FKRIVQRIKDFLR – C [FK13]	abrogated	–	–	–	–	–	–	–	–	–	–	–	–	–
N – KRIVKLIKKWLR – C [KR12C]	–	901	~8	very poor or no binding affinity	~3	~4	very poor or no binding affinity	very poor or no binding affinity	6.91	10.87	significant upregulation	suppressed	significantly suppressed	–
N – KRIVQRIKKWLR – C [KR12A, dodecameric mutant peptide derived from FK13 / LL37]	abrogated	–	–	–	–	–	–	–	–	–	–	–	–	~30
